Measurements published in patent US20220064138A1, “MACROLIDE BREFELDIN A ESTER DERIVATIVES AND USE THEREOF” (OCEAN UNIVERSITY OF CHINA, priority 2019, published 2022).

Tests used:
Test in all cases: Cell proliferation assay (CCK-8)
Assay type in all cases: cell-based
[1] = tested on: human liver cancer HepG2 cells; conditions: HepG2, 72 h
Excerpt: (§1) CCK-8 method: The CCK-8 method is a highly sensitive, non-radioactive colorimetric assay for the determination of the number of viable cells in cell proliferation or cytotoxicity assays. The orange formazan dye produced by the bioreduction of CCK-8 by intracellular dehydrogenase is soluble in the cell culture medium, and the amount of formazan dye produced is proportional to the number of living cells. The kit used in this method is the tetrazolium salt-WST-8 (2-(2-methoxy-4-nitrophenyl)-3-(4-nitrophenyl)-5-(2,4-disulfophenyl)-2H-tetrazolium monosodium salt) developed by Dojindo Chemical Research Institute (Dojindo), which is capable of being reduced to a water-soluble formazan dye in the presence of the electronic carrier 1-Methoxy PMS.
(§2) Human cervical cancer Hela cells, pancreatic cancer PANC-1 cells, esophageal cancer Eca-109 cells, human leukemia K562 cells, human lung cancer A549 cells, human liver cancer HepG2 cells, human gastric cancer MKN-45 cells, human breast cancer MCF7 cells were cultured in DMEM medium containing 10% FBS (fetal bovine serum), 100 U/mL penicillin and 100 μg/ml streptomycin. Hepatocellular carcinoma cells Bel-7402 were cultured in RPMI-1640 medium containing 10% FBS (fetal bovine serum), 100 U/ml penicillin and 100 μg/ml streptomycin. All cells were placed in a cell culture incubator at 37° C. with 5% CO2. Cells fluid was changed every 3-5 days, and after 80% cell fusion, trypsin digestion and passaging were performed to keep the cells in good logarithmic growth phase.
(§3) All the samples to be tested were dissolved in DMSO.
(§4) Cells in logarithmic growth phase were inoculated in 96-well plates with 5000 cells/well respectively, and after 24 h of incubation, samples were added (final concentrations as shown in the table), and biplicate wells were set up for each sample. The amount of solvent of DMSO was not higher than 2‰. After 72 h, 10 μL of CCK-8 solution was added to each well and incubated for 1.5˜3 h at 37° C. The OD value at 450 nm was measured on an plate reader.
(§5) Inhibition rate (%)=(1−[(OD450 dosed well−OD450 blank well)/(OD450 control well−OD450 blank well)])×100%
(§6) The fitted IC50 values were calculated using the log (inhibitor) vs. response-Variable slop analysis method in GraphPad Prism software.

[2] = tested on: human lung cancer A549 cells; conditions: A549, 72 h
Excerpt: as §1, §2, §3, §4, §5, §6

[3] = tested on: pancreatic cancer PANC-1 cells; conditions: Homo sapiens, PANC-1, 72 h
Excerpt: as §1, §2, §3, §4, §5, §6

[4] = tested on: Human cervical cancer Hela cells; conditions: 72 h
Excerpt: as §1, §2, §3, §4, §5, §6

[5] = tested on: human gastric cancer MKN-45 cells; conditions: MKN-45, 72 h
Excerpt: as §1, §2, §3, §4, §5, §6

[6] = tested on: esophageal cancer Eca-109 cells; conditions: Homo sapiens, Eca-109, 72 h
Excerpt: as §1, §2, §3, §4, §5, §6

[7] = tested on: human breast cancer MCF7 cells; conditions: MCF7, 72 h
Excerpt: as §1, §2, §3, §4, §5, §6

[8] = tested on: human leukemia K562 cells; conditions: K562, 72 h
Excerpt: as §1, §2, §3, §4, §5, §6

SMILES	IC50 [1] [nM]	IC50 [2] [nM]	IC50 [3] [nM]	IC50 [4] [nM]	IC50 [5] [nM]	IC50 [6] [nM]	IC50 [7] [nM]	IC50 [8] [nM]
Cc1ccccc1/C=C/C(=O)O[C@@H]1C[C@@H]2[C@H](/C=C/CCC[C@H](C)OC(=O)/C=C/[C@H]2OC(=O)/C=C/c2ccccc2C)C1 [Compound 8c, 4,7-O-bis(2-methylcinnamic acid)acyl BFA]	1000 to 10000	1000 to 10000	1000 to 10000	1000 to 10000	100 to 1000	100 to 1000	1000 to 10000	1000 to 10000
C[C@H]1CCC/C=C/[C@@H]2C[C@H](OC(=O)/C=C/c3ccc4c(c3)OCO4)C[C@H]2[C@H](O)/C=C/C(=O)O1 [Compound 9a, 7-O—((E)-3-(benzo[d][1,3]dioxa-5-yl)acrylic acid)acyl BFA]	1000 to 10000	100 to 1000	100 to 1000	1000 to 10000	100 to 1000	1000 to 10000	100 to 1000	100 to 1000
C[C@H]1CCC/C=C/[C@@H]2C[C@H](OC(=O)/C=C/c3ccc4c(c3)OCO4)C[C@H]2C(OC(=O)/C=C/c2ccc3c(c2)OCO3)/C=C/C(=O)O1 (stereo partly drawn) [Compound 9c, 4,7-O-bis((E)-3-(benzo[d][1,3]dioxa-5-yl)acrylic acid)acyl BFA]	1000 to 10000	1000 to 10000	1000 to 10000	1000 to 10000	100 to 1000	1000 to 10000	1000 to 10000	100 to 1000
COc1cc(/C=C/C(=O)O[C@@H]2C[C@H]3[C@H](O)/C=C/C(=O)O[C@@H](C)CCC/C=C/[C@@H]3C2)cc(OC)c1OC [Compound 11a, 7-O-(3,4,5-trimethoxycinnamic acid)acyl BFA]	100 to 1000	100 to 1000	100 to 1000	1000 to 10000	100 to 1000	1000 to 10000	100 to 1000	100 to 1000
COc1cc(/C=C/C(=O)O[C@@H]2/C=C/C(=O)O[C@@H](C)CCC/C=C/[C@@H]3C[C@H](O)C[C@H]32)cc(OC)c1OC [Compound 11b, 4-O-(3,4,5-trimethoxycinnamic acid)acyl BFA]	100 to 1000	100 to 1000	100 to 1000	1000 to 10000	100 to 1000	1000 to 10000	100 to 1000	100 to 1000
COc1cc(/C=C/C(=O)O[C@@H]2C[C@@H]3[C@H](/C=C/CCC[C@H](C)OC(=O)/C=C/[C@H]3OC(=O)/C=C/c3cc(OC)c(OC)c(OC)c3)C2)cc(OC)c1OC [Compound 11c, 4,7-O-bis(3,4,5-trimethoxycinnamic acid)acyl BFA]	1000 to 10000	100 to 1000	1000 to 10000	1000 to 10000	1000 to 10000	1000 to 10000	1000 to 10000	100 to 1000
C[C@H]1CCC/C=C/[C@@H]2C[C@H](OC(=O)/C=C/c3ccc(C(F)(F)F)cc3)C[C@H]2[C@H](O)/C=C/C(=O)O1 [Compound 13a, 7-O-(4-trifluoromethylcinnamic acid)acyl BFA]	100 to 1000	100 to 1000	100 to 1000	100 to 1000	100 to 1000	100 to 1000	100 to 1000	100 to 1000
C[C@H]1CCC/C=C/[C@@H]2C[C@H](O)C[C@H]2[C@H](OC(=O)/C=C/c2ccc(C(F)(F)F)cc2)/C=C/C(=O)O1 [Compound 13b, 4-O-(4-trifluoromethylcinnamic acid)acyl BFA]	100 to 1000	100 to 1000	100 to 1000	100 to 1000	100 to 1000	100 to 1000	100 to 1000	100 to 1000
C[C@H]1CCC/C=C/[C@@H]2C[C@H](OC(=O)/C=C/c3ccc(C(F)(F)F)cc3)C[C@H]2[C@H](OC(=O)/C=C/c2ccc(C(F)(F)F)cc2)/C=C/C(=O)O1 [Compound 13c, 4,7-O-bis(4-trifluoromethylcinnamic acid)acyl BFA]	1000 to 10000	100 to 1000	1000 to 10000	1000 to 10000	1000 to 10000	1000 to 10000	1000 to 10000	100 to 1000
